Laboratory results taken from ChEMBL document CHEMBL1201861, “Genomics of Drug Sensitity in Cancer screening data, Wellcome Trust Sanger Institute”.

Experiments:
Assay in all cases: cells
[1] = system: SW 1116; assay type: functional, cell-based; settings: Homo sapiens;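 further: growth inhibition of SW1116 cells, read out with a cell viability assay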
Description: SANGER: Inhibition of human SW1116 cell growth in a cell viability assay.

[2] = system: EW-22; assay type: functional, cell-based; settings: Homo sapiens;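 further: growth inhibition of the EW-22 cell line, measured with a cell viability readout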
Description: SANGER: Inhibition of human EW-22 cell growth in a cell viability assay.

[3] = system: TGBC11TKB; assay type: functional, cell-based; settings: Homo sapiens;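 further: growth inhibition of human TGBC11TKB cells, measured by a cell viability assay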
Description: SANGER: Inhibition of human TGBC11TKB cell growth in a cell viability assay.

[4] = system: NCI-H522; assay type: functional, cell-based, Homo sapiens; settings: Homo sapiens, NCI-H522;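 further: cell viability assay measuring growth inhibition of human NCI-H522 cells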
Description: SANGER: Inhibition of human NCI-H522 cell growth in a cell viability assay.

[5] = system: BT-549; assay type: functional, cell-based; settings: Homo sapiens
Description: SANGER: Inhibition of human BT-549 cell growth in a cell viability assay.

[6] = system: HT55; assay type: functional, cell-based, Homo sapiens; settings: Homo sapiens, HT55;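 further: cell viability readout measuring growth inhibition of human HT55 cells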
Description: SANGER: Inhibition of human HT55 cell growth in a cell viability assay.

[7] = system: NCI-H630; assay type: functional, cell-based, Homo sapiens; settings: Homo sapiens, NCI-H630;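 further: growth inhibition of NCI-H630 cells, read out with a cell viability assay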
Description: SANGER: Inhibition of human NCI-H630 cell growth in a cell viability assay.

[8] = system: SW900; assay type: functional, cell-based; settings: Homo sapiens;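 further: IC50 is the concentration that inhibits SW900 cell growth, measured by a cell viability assay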
Description: SANGER: Inhibition of human SW900 cell growth in a cell viability assay.

[9] = system: SJRH30; assay type: functional, cell-based; settings: Homo sapiens;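 further: growth inhibition of human SJRH30 cells, read out with a cell viability assay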
Description: SANGER: Inhibition of human SJRH30 cell growth in a cell viability assay.

[10] = system: NCI-H460; assay type: functional, cell-based, Homo sapiens; settings: Homo sapiens, NCI-H460;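 further: cell viability assay scoring growth inhibition of human NCI-H460 cells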
Description: SANGER: Inhibition of human NCI-H460 cell growth in a cell viability assay.

[11] = system: ECC10; assay type: functional, cell-based; settings: Homo sapiens;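 further: growth inhibition of ECC10 cells, read out by a cell viability assay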
Description: SANGER: Inhibition of human ECC10 cell growth in a cell viability assay.

[12] = system: NCI-H1048; assay type: functional, cell-based; settings: Homo sapiens;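 further: growth inhibition of human NCI-H1048 cells, read out with a cell viability assay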
Description: SANGER: Inhibition of human NCI-H1048 cell growth in a cell viability assay.

[13] = system: SNU-423; assay type: functional, cell-based, Homo sapiens; settings: Homo sapiens, SNU-423
Description: SANGER: Inhibition of human SNU-423 cell growth in a cell viability assay.

[14] = system: NBsusSR; assay type: functional, cell-based; settings: Homo sapiens;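 further: growth inhibition of the human cell line, read out with a cell viability assay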
Description: SANGER: Inhibition of human NBsusSR cell growth in a cell viability assay.

[15] = system: H9; assay type: functional, cell-based; settings: Homo sapiens
Description: SANGER: Inhibition of human H9 cell growth in a cell viability assay.

[16] = system: BALL-1; assay type: functional, cell-based; settings: Homo sapiens;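 further: growth inhibition of BALL-1 cells, read out with a cell viability assay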
Description: SANGER: Inhibition of human BALL-1 cell growth in a cell viability assay.

[17] = system: A549; assay type: functional, cell-based; settings: Homo sapiens;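 further: growth inhibition of A549 cells, read out with a cell viability assay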
Description: SANGER: Inhibition of human A549 cell growth in a cell viability assay.

[18] = system: HSC-4; assay type: functional, cell-based, Homo sapiens; settings: Homo sapiens, HSC-4;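 further: growth inhibition of human HSC-4 cells, read out with a cell viability assay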
Description: SANGER: Inhibition of human HSC-4 cell growth in a cell viability assay.

Row | Compound | IC50 [1] [µM] | IC50 [2] [µM] | IC50 [3] [µM] | IC50 [4] [µM] | IC50 [5] [µM] | IC50 [6] [nM] | IC50 [7] [µM] | IC50 [8] [µM] | IC50 [9] [µM] | IC50 [10] [nM] | IC50 [11] [nM] | IC50 [12] [nM] | IC50 [13] [nM] | IC50 [14] [nM] | IC50 [15] [nM] | IC50 [16] [µM] | IC50 [17] [nM] | IC50 [18] [nM]
1 | CCOc1nc(NC(=O)Cc2cc(OC)ccc2OC)cc(N)c1C#N | > 10 | > 10 | > 10 | > 10 | > 10 | > 10000 | > 10 | > 10 | > 10 | > 10000 | > 10000 | > 10000 | > 10000 | > 10000 | > 10000 | > 10 | > 10000 | 
2 | CC(=O)O[C@@H]1[C@@H](OC(C)=O)[C@@H](O)[C@H](Oc2c(-c3ccc(O)cc3)oc3cc(O)cc(O)c3c2=O)O[C@H]1C | > 10 | > 10 | > 10 | > 10 | > 10 |  | > 10 | > 10 | > 10 | > 10000 | > 10000 | > 10000 |  | > 10000 | > 10000 | > 10 | > 10000 | 
3 | COc1cc(F)c(F)c(Nc2ccc(I)cc2F)c1NS(=O)(=O)C1(CC(O)CO)CC1 (configuration not stated) | > 5 | > 5 | > 5 | > 5 | > 5 | 2430 | > 5 | > 5 | > 5 | 2520 | 1390 | > 5000 | 4930 | > 5000 | 20.1 | > 5 | 116 | 
4 | O=C1N=C(NCc2cccs2)S/C1=C\c1ccc2ncccc2c1 | > 5 | > 5 | > 5 | > 5 | > 5 | > 5000 | > 5 | > 5 | > 5 | > 5000 | > 5000 | > 5000 | > 5000 | > 5000 | > 5000 | > 5 | > 5000 | 
5 | CN(C)C/C=C/C(=O)Nc1cc2c(Nc3ccc(F)c(Cl)c3)ncnc2cc1O[C@H]1CCOC1 [AFATINIB] | > 0.5 | > 0.5 | > 0.5 |  | > 0.5 | > 500 | > 0.5 | > 0.5 | > 0.5 | > 500 | > 500 | > 500 | > 500 | > 500 | 71.3 | > 0.5 | > 500 | 17.5
6 | COc1ccc(-c2ccc3c(N4CCOC[C@@H]4C)nc(N4CCOC[C@@H]4C)nc3n2)cc1CO [AZD-8055] | > 2 | 0.684 | > 2 | 0.63 | > 2 | > 2000 | > 2 | 1.75 | > 2 | 506 | 350 | 586 | 814 | 170 | 66.9 | > 2 | 195 | 
7 | O=C(NOCC1CC1)c1ccc(F)c(F)c1Nc1ccc(I)cc1Cl [CI-1040] | 1.56 | > 10 | > 10 |  | > 10 |  | > 10 | > 10 | > 10 | > 10000 | 8030 | > 10000 |  | 5570 | 22.8 | > 10 | 1200 | 244
8 | Nc1ccn([C@@H]2O[C@H](CO)[C@@H](O)[C@@H]2O)c(=O)n1 [CYTARABINE] | > 2 | 0.668 | 1.73 |  | 0.531 | > 2000 | > 2 | 1.62 | 0.683 | > 2000 | > 2000 | 389 | 881 | 335 | 391 | > 2 | 49.7 | 467
9 | CC(=O)O[C@@]12CO[C@@H]1C[C@H](O)[C@@]1(C)C(=O)[C@H](O)C3=C(C)[C@@H](OC(=O)[C@H](O)[C@@H](NC(=O)OC(C)(C)C)c4ccccc4)C[C@@](O)([C@@H](OC(=O)c4ccccc4)[C@H]21)C3(C)C [DOCETAXEL] | > 0.01 | > 0.01 | 0.00469 |  |  | > 10 | > 0.01 | 0.00755 |  |  | 4.6 | 1.92 | 8.57 | 1.1 | 1.24 | > 0.01 | 0.882 | 0.239
10 | COc1ccc(C2=N[C@@H](c3ccc(Cl)cc3)[C@@H](c3ccc(Cl)cc3)N2C(=O)N2CCNC(=O)C2)c(OC(C)C)c1 [NUTLIN-3] | > 8 | > 8 | > 8 | > 8 | > 8 | > 8000 | > 8 | > 8 | > 8 | 4910 | > 8000 | > 8000 | > 8000 | > 8000 | > 8000 | > 8 | 3640 | 
11 | O=C(c1cc(Cc2n[nH]c(=O)c3ccccc23)ccc1F)N1CCN(C(=O)C2CC2)CC1 [OLAPARIB] | > 5 | 4.36 | > 5 |  |  | > 5000 | > 5 | > 5 |  |  | > 5000 | > 5000 | > 5000 | > 5000 | > 5000 | > 5 | > 5000 | > 5000
12 | Cn1cc(C2=C(c3ccc(Cl)cc3Cl)C(=O)NC2=O)c2ccccc21 [SB-216763] | > 10 | > 10 | > 10 |  | 5.29 |  | > 10 | > 10 | > 10 | > 10000 |  | > 10000 |  | > 10000 |  | > 10 | > 10000 | > 10000
13 | C=CCNC1=C2C[C@@H](C)C[C@H](OC)[C@H](O)[C@@H](C)/C=C(\C)[C@H](OC(N)=O)[C@@H](OC)/C=C\C=C(/C)C(=O)NC(=CC1=O)C2=O [TANESPIMYCIN] | > 1 | > 1 | 0.109 | 0.878 | 0.118 | > 1000 | > 1 | > 1 | > 1 | 19.7 | > 1000 | 290 | > 1000 | 373 | 43.7 | > 1 | < 3.91 | 
